Measured values as given in US20200055839A1 (priority 2017, published 2020).

Test system: NL-RLuc virus
Experiment: Inhibition of HIV replication (NL-RLuc virus, luciferase readout in MT-2 cells)
Format: cell-based
Conditions: Human immunodeficiency virus 1, MT2, 120 h, MT-2 cells infected with NL-RLuc virus, 5 days of incubation, 10% FBS, at least 2 experiments
Procedure, shortened: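 MT-2 cells infected with NL4-3-derived virus carrying Renilla luciferase in place of part of nef, grown 5 days with serial compound dilutions in RPMI 1640/10% FBS. Virus growth read as luciferase expression. EC50 from median effect equation, at least 2 experiments.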

Compound	EC50
COc1c(F)ccc(-c2cnc(C)c([C@H](OC(C)(C)C)C(=O)O)c2N2CCC(C)(C)CC2)c1F [Example 171, (2S)-2-(tert-Butoxy)-2-[5-(2,4-difluoro-3-methoxyphenyl)-4-(4,4-dimethylpiperidin-1-yl)-2-methylpyridin-3-yl]acetic acid]	5 nM
Cc1nc(Nc2ccncc2F)c(-c2ccc(OCCc3ccc(F)cc3)cc2)c(N2CCC(C)(C)CC2)c1[C@H](OC(C)(C)C)C(=O)O [Example 93, (S)-2-(tert-Butoxy)-2-(4-(4,4-dimethylpiperidin-1-yl)-5-(4-(4-fluorophenethoxy)phenyl)-6-((3-fluoropyridin-4-yl)amino)-2-methylpyridin-3-yl)acetic acid]	12 nM
Cc1ncc(-c2ccc(O[C@@H](C)C(C)C)cn2)c(N2CCC(C)(C)CC2)c1[C@H](OC(C)(C)C)C(=O)O [Example 311, (2S)-2-(tert-butoxy)-2-[4′-(4,4-dimethylpiperidin-1-yl)-6′-methyl-5-{[(2S)-3-methylbutan-2-yl]oxy}-[2,3′-bipyridine]-5′-yl]acetic acid]	1 nM
Cc1nc(C#N)c(-c2ccc(CN(C)c3ncnc4c3oc3ccccc34)cc2)c(N2CCC(C)(C)CC2)c1[C@H](OC(C)(C)C)C(=O)O [Example 22, (2S)-2-(tert-Butoxy)-2-[6-cyano-4-(4,4-dimethylpiperidin-1-yl)-2-methyl-5-(4-{[methyl({8-oxa-3,5-diazatricyclo[7.4.0.0^2,7]trideca-1 (9), 2(7), 3,5,10, 12-hexaen-6-yl})amino]methyl}phenyl)pyridin-3-yl]acetic acid]	3 nM
C=Cc1nc(C)c(-c2ccc(OCCc3ccc(F)cc3)cc2)c(N2CCC(C)(C)CC2)c1[C@H](OC(C)(C)C)C(=O)O [Example 1, (S)-2-(tert-Butoxy)-2-(4-(4,4-dimethylpiperidin-1-yl)-5-(4-(4-fluorophenethoxy)phenyl)-6-methyl-2-vinylpyridin-3-yl)acetic acid]	20 nM
Cc1ncc(-c2cnc(O[C@H](C)c3ccccc3)c(F)c2)c(N2CCC(C)(C)CC2)c1[C@H](OC(C)(C)C)C(=O)O [Example 396, (2S)-2-(tert-butoxy)-2-[4-(4,4-dimethylpiperidin-1-yl)-5′-fluoro-6-methyl-6′-[(1R)-1-phenylethoxy]-[3,3′-bipyridine]-5-yl]acetic acid]	2 nM
Cc1ncc(-c2ccc(OCCc3ccc(F)cc3F)cn2)c(N2CCC(C)(C)CC2)c1[C@H](OC(C)(C)C)C(=O)O [Example 306, (2S)-2-(tert-butoxy)-2-{5-[2-(2,4-difluorophenyl)ethoxy]-4′-(4,4-dimethylpiperidin-1-yl)-6′-methyl-[2,3′-bipyridine]-5′-yl}acetic acid]	0.6 nM
Cc1ncc(-c2ccc(OCc3c(Cl)cccc3Cl)cn2)c(N2CCC(C)(C)CC2)c1[C@H](OC(C)(C)C)C(=O)O [Example 355, (2S)-2-(tert-butoxy)-2-{5-[(2,6-dichlorophenyl)methoxy]-4′-(4,4-dimethylpiperidin-1-yl)-6′-methyl-[2,3′-bipyridine]-5′-yl}acetic acid]	1 nM
CN(Cc1ccc(-c2cnc(Cl)c([C@H](OC(C)(C)C)C(=O)O)c2N2CCC(C)(C)CC2)cc1)c1ncnc2c1oc1ccccc12 [Example 220, (S)-2-(5-(4-((Benzofuro[3,2-d]pyrimidin-4-yl(methyl)amino)methyl)phenyl)-2-chloro-4-(4,4-dimethylpiperidin-1-yl)pyridin-3-yl)-2-(tert-butoxy)acetic acid]	2 nM
Cc1ncc(-c2ccc3c(c2)OCO3)c(N2CCC(C)(C)CC2)c1[C@H](OC(C)(C)C)C(=O)O [Example 180, (2S)-2-[5-(2H-1,3-Benzodioxol-5-yl)-4-(4,4-dimethylpiperidin-1-yl)-2-methylpyridin-3-yl]-2-(tert-butoxy)acetic acid]	3 nM
Cc1ncc(-c2cnc(OCCC(C)C)c(F)c2)c(N2CCC(C)(C)CC2)c1[C@H](OC(C)(C)C)C(=O)O [Example 368, (2S)-2-(tert-butoxy)-2-[4-(4,4-dimethylpiperidin-1-yl)-5′-fluoro-6-methyl-6′-(3-methylbutoxy)-[3,3′-bipyridine]-5-yl]acetic acid]	1 nM
Cc1cc(C)n(-c2nc(C)c([C@H](OC(C)(C)C)C(=O)O)c(N3CCC(C)(C)CC3)c2-c2ccc(OCCc3ccc(F)cc3)cc2)n1 [Example 59, (S)-2-(tert-Butoxy)-2-(6-(3,5-dimethyl-1H-pyrazol-1-yl)-4-(4,4-dimethylpiperidin-1-yl)-5-(4-(4-fluorophenethoxy)phenyl)-2-methylpyridin-3-yl)acetic acid]	3 nM
Cc1cc(OCC(C)C)ncc1-c1cnc(C)c([C@H](OC(C)(C)C)C(=O)O)c1N1CCC(C)(C)CC1 [Example 429, (2S)-2-tert-Butoxy-2-(4-(4,4-dimethylpiperidin-1-yl)-6′-isobutoxy-4′,6-dimethyl-3, 3′-bipyridin-5-yl)acetic acid]	219 nM
Cc1nc(Nc2cnn(C)c2)c(-c2ccc(OCCc3ccc(F)cc3)cc2)c(N2CCC(C)(C)CC2)c1[C@H](OC(C)(C)C)C(=O)O [Example 87, (S)-2-(tert-Butoxy)-2-(4-(4,4-dimethylpiperidin-1-yl)-5-(4-(4-fluorophenethoxy)phenyl)-2-methyl-6-((1-methyl-H-pyrazol-4-yl)amino)pyridin-3-yl)acetic acid]	2 nM
Cc1ncc(-c2cnc(OCCc3ccc(F)c(F)c3)c(F)c2)c(N2CCC(C)(C)CC2)c1[C@H](OC(C)(C)C)C(=O)O [Example 392, (2S)-2-(tert-butoxy)-2-{6′-[2-(3,4-difluorophenyl)ethoxy]-4-(4,4-dimethylpiperidin-1-yl)-5′-fluoro-6-methyl-[3,3′-bipyridine]-5-yl}acetic acid]	1 nM
Cc1ncc(-c2cccc3cccnc23)c(N2CCC(C)(C)CC2)c1[C@H](OC(C)(C)C)C(=O)O [Example 184, (2S)-2-(tert-Butoxy)-2-[4-(4,4-dimethylpiperidin-1-yl)-2-methyl-5-(quinolin-8-yl)pyridin-3-yl]acetic acid]	8 nM
Cc1nc(Nc2cccc(F)n2)c(-c2ccc(OCCc3ccc(F)cc3)cc2)c(N2CCC(C)(C)CC2)c1[C@H](OC(C)(C)C)C(=O)O [Example 89, (S)-2-(tert-Butoxy)-2-(4-(4,4-dimethylpiperidin-1-yl)-5-(4-(4-fluorophenethoxy)phenyl)-6-((6-fluoropyridin-2-yl)amino)-2-methylpyridin-3-yl)acetic acid]	13 nM
CC1(C)CCN(c2c(-c3ccc(OCCc4ccc(F)cc4)cc3)c(N)nc(Cl)c2[C@H](OC(C)(C)C)C(=O)O)CC1 [Example 206, (S)-2-(6-Amino-2-chloro-4-(4,4-dimethylpiperidin-1-yl)-5-(4-(4-fluorophenethoxy)phenyl)pyridin-3-yl)-2-(tert-butoxy)acetic acid]	2 nM
Cc1ncc(-c2cccc(Cl)c2)c(N2CCC(C)(C)CC2)c1[C@H](OC(C)(C)C)C(=O)O [Example 143, (2S)-2-(tert-Butoxy)-2-[5-(3-chlorophenyl)-4-(4,4-dimethylpiperidin-1-yl)-2-methylpyridin-3-yl]acetic acid]	4 nM
Cc1nc(Nc2ccnc(C(=O)O)c2)c(-c2ccc(OCCc3ccc(F)cc3)cc2)c(N2CCC(C)(C)CC2)c1[C@H](OC(C)(C)C)C(=O)O [Example 102, (S)-4-((5-(tert-Butoxy(carboxy)methyl)-4-(4,4-dimethylpiperidin-1-yl)-3-(4-(4-fluorophenethoxy)phenyl)-6-methylpyridin-2-yl)amino)picolinic acid]	50 nM
Cc1ncc(-c2cccc3ccccc23)c(N2CCC(C)(C)CC2)c1[C@H](OC(C)(C)C)C(=O)O [Example 182, (2S)-2-(tert-Butoxy)-2-[4-(4,4-dimethylpiperidin-1-yl)-2-methyl-5-(naphthalen-1-yl)pyridin-3-yl]acetic acid]	27 nM
Cc1ccc(-c2cnc(C)c([C@H](OC(C)(C)C)C(=O)O)c2N2CCC(C)(C)CC2)c(F)c1F [Example 159, (2S)-2-(tert-Butoxy)-2-[5-(2,3-difluoro-4-methylphenyl)-4-(4,4-dimethylpiperidin-1-yl)-2-methylpyridin-3-yl]acetic acid]	2 nM
Cc1ncc(-c2ccc(OCCc3ccc(F)cc3)nn2)c(N2CCC(C)(C)CC2)c1[C@H](OC(C)(C)C)C(=O)O [Example 17, (S)-2-(tert-Butoxy)-2-(4-(4,4-dimethylpiperidin-1-yl)-5-(6-(4-fluorophenethoxy)pyridazin-3-yl)-2-methylpyridin-3-yl)acetic acid]	85 nM
CCCCOc1ccc(-c2cnc(CC)c([C@H](OC(C)(C)C)C(=O)O)c2N2CCC(C)(C)CC2)nc1 [Example 279, (S)-2-(tert-Butoxy)-2-(5-butoxy-4′-(4,4-dimethylpiperidin-1-yl)-6′-ethyl-[2, 3′-bipyridin]-5′-yl)acetic acid]	6 nM
Cc1ncc(-c2cccc(-c3cccc(Cl)c3)c2)c(N2CCC(C)(C)CC2)c1[C@H](OC(C)(C)C)C(=O)O [Example 144, (2S)-2-(tert-butoxy)-2-(5-{3′-chloro-[1,1′-biphenyl]-3-yl}-4-(4,4-dimethylpiperidin-1-yl)-2-methylpyridin-3-yl)acetic acid]	78 nM
CCCCCCOc1ccc(-c2cnc(C)c([C@H](OC(C)(C)C)C(=O)O)c2N2CCC(C)(C)CC2)nc1 [Example 334, (2S)-2-(tert-butoxy)-2-[4′-(4,4-dimethylpiperidin-1-yl)-5-(hexyloxy)-6′-methyl-[2,3′-bipyridine]-5′-yl]acetic acid]	4 nM
CC1(C)CCN(c2c(-c3ccc(OCCc4ccc(F)cc4)cn3)cnc(CO)c2[C@H](OC(C)(C)C)C(=O)O)CC1 [Example 269, (S)-2-(tert-Butoxy)-2-(4′-(4,4-dimethylpiperidin-1-yl)-5-(4-fluorophenethoxy)-6′-(hydroxymethyl)-[2, 3′-bipyridin]-5′-yl)acetic acid]	9 nM
